Assay results: US9233984B2, “Compound, method for producing compound, and method for purifying compound” (Nippon Soda Co., Ltd., priority 2012, dated 2016)
Several values for one entry are separate records, joined by “and”; a condition that tells them apart may be missing. Identical values can stand only once.

Assay: Isomerization reaction rate under irradiation with light (365 nm, high-pressure mercury lamp) of 1% by weight aqueous solutions
Format: physicochemical
Settings: 1% by weight aqueous solution
Description: The reaction rates of the isomerization reaction were compared for the TZOX and TZOX-Na salt synthesized in Example 1. More specifically, 1% by weight aqueous solutions of each were prepared followed by irradiating these aqueous solutions with light (wavelength: 365 nm) for 3 hours using a high-pressure mercury lamp. A portion of the aqueous solutions were sampled prior to the start of irradiation with light (irradiation time: 0 hours) and at 1, 2 and 3 hours after the start of irradiation with light followed by an investigation of the abundance ratios of the (E) form and (Z) form. Although the abundance ratio of the (Z) form in the case of TZOX-Na prior to irradiation with light was only 0.33%, it increased to 34% after 1 hour had elapsed since the start of irradiation and remained essentially unchanged after that point. In other words, it was determined that the TZOX-Na salt reaches equilibrium as a result of being irradiated with light for 1 hour, and that the isomerization rate thereof is extremely fast. In contrast, in the case of TZOX, the abundance ratio of the (Z) form only finally reached 35% after 3 hours had elapsed since the start of irradiation, and it was determined that at least 2 hours are required to reach equilibrium.

[1] = irradiation time 0 hours (prior to irradiation)

| SMILES | Irradiation time required to reach equilibrium of (E)/(Z) isomerization | Abundance Ratio (%) (E) form [1] | Abundance Ratio (%) (Z) form [1] | Abundance Ratio (%) (E) form (irradiation time 1 hour) | Abundance Ratio (%) (Z) form (irradiation time 1 hour) | Abundance Ratio (%) (E) form (irradiation time 2 hours) | Abundance Ratio (%) (Z) form (irradiation time 2 hours) | Abundance Ratio (%) (E) form (irradiation time 3 hours) | Abundance Ratio (%) (Z) form (irradiation time 3 hours) |
| --- | --- | --- | --- | --- | --- | --- | --- | --- | --- |
| Cn1nnnc1C(=N[O-])c1ccccc1.[Na+] [TZOX-Na] | 1 h | 99.43% | 0.33% | 64.0% | 34% | 63.0% | 33.9% | 66.6% | 32.3% |
| Cn1nnnc1C(=NO)c1ccccc1 [TZOX, (1-methyl-1H-tetrazol-5-yl)(phenyl)methanoneoxime] | at least 2 hour | 99.52% | 0.45% | 83.99% | 13.7% | 70.39% | 28.13% | 62.8% | 35% and 35.3% |
